These results are taken from patent US9212153B2, “Inhibitors of beta-secretase” (Vitae Pharmaceuticals, Inc., priority 2009, dated 2015).

Broadly, the IC50 is the concentration that gives 50% inhibition.

Test [1] addresses truncated human beta-secretase (residues 1-458, His6-tagged at the C-terminus) (Homo sapiens (Human), UniProt P56817). Put plainly: BACE enzyme assay (fluorescence quench, Example 434A). Type of test: biochemical.
A further test concerns the target BACE (Homo sapiens (Human), UniProt P56817). The experiment in a line: BACE cell assay (H4-APPsw cells, secreted Aβ 1-40 by AlphaLISA/ELISA). The test is classed as cell-based. The note with it: in vitro cell activity.
[2] abbreviates: footnote a: determined according to protocols described in Example 434A.

Where two headings read alike, the source gives them in different places. Bounds are passed on as bounds.

Sequence of BACE (P56817 46-501 limits assumed): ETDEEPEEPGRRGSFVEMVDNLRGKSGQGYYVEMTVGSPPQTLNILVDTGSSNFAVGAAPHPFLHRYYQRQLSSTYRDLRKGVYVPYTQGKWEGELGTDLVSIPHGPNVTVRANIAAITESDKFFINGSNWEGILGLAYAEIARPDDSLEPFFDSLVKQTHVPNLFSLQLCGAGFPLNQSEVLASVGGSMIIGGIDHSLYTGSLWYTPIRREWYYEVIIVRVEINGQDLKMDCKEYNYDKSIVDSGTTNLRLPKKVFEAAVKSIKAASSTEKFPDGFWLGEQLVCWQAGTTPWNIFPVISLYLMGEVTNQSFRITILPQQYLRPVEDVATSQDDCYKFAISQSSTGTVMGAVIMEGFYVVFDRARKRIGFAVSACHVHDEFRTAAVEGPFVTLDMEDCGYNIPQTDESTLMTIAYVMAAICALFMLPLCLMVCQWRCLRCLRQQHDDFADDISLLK
Sequence of truncated human beta-secretase (residues 1-458, His6-tagged at the C-terminus) (P56817 22-458): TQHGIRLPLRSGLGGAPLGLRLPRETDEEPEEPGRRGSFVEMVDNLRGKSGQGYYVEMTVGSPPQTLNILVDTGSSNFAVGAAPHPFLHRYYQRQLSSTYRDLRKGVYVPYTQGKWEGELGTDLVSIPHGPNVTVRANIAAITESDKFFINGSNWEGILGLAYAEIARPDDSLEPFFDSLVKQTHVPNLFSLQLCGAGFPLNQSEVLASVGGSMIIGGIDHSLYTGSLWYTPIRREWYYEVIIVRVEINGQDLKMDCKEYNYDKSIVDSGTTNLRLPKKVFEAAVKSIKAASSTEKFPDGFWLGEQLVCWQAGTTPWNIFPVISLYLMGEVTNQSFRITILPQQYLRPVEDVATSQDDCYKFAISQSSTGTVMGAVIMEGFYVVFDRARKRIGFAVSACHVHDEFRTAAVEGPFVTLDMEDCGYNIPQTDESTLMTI

In test [1], `COC1CCC2(CC1)Cc1ccc(-c3cccnn3)cc1C21N=C(N)N(C)O1` (stereo not drawn) [Compound 107] returned a half-inhibitory concentration (IC50) of 228 nM.

As to `CN1OC2(N=C1N)c1cc(Br)ccc1C[C@@]21C[C@@H]1c1ccccc1` (stereo partly drawn) [Compound 460], the IC50 in test [1] came out at 9810 nM. In test [1] (setting [2]), `CN1OC2(N=C1N)c1cc(Br)ccc1CC21CCc2ccccc2CC1` (stereo not drawn) [Compound 67] displayed an IC50 of 138 nM.

On to `CN1OC2(N=C1N)c1cc(-c3cccc(C#N)c3)ccc1CC21CCS(=O)(=O)CC1` (stereo not drawn) [Compound 459], for which, in test [1] (setting [2]), the concentration for half-maximal inhibition (IC50) is 693 nM. Regarding `CCOC1(F)CCC2(CC1)Cc1ccc(-c3cccc(C#N)c3)cc1C21N=C(N)N(C)O1` (stereo not drawn) [compound 49], the IC50 against BACE was less than 1000 nM.

`CN1C(=O)C2(N=C1N)c1cc(-c3cccc(C#N)c3)ccc1CC21Cc2cnncc2C1` (stereo not drawn) [Compound 471] returned an IC50 in test [1] (setting [2]) of 870 nM. This counts as sub-micromolar.

As for `Cc1onc2c1CC1(CC2)Cc2ccc(Br)cc2C12N=C(N)N(C)C2=O` (stereo not drawn) [Compound 461], in test [1] (setting [2]), the IC50 amounted to 16.7 nM.

For `CN1OC2(C=C1N)c1cc(-c3cccc(C#N)c3)ccc1CC21CCCc2ccccc2C1` (stereo not drawn) [Compound 46], the IC50 was less than 10000 nM on BACE and 293 nM in test [1] (setting [2]).

Turning to `COC1CCC2(CC1)Cc1ccc(C#CC3CC3)cc1C21C=C(N)N(C)O1` (stereo not drawn) [Compound 3], the IC50 on BACE is less than 100 nM; in test [1] (setting [2]) it was 4.5 nM. As for `COC1CCC2(CC1)Cc1ccc(C3=CC(O)CC3)cc1C21N=C(N)N(C)C1=O` (stereo not drawn) [Compound 476], the “IC50 (nM)” value in test [1] (setting [2]) is reported as 33. l^a.
